Patent publication US20250340591A1, “COMPOSITION FOR PREVENTING OR TREATING INFLAMMATORY BOWEL DISEASE CONTAINING NOVEL COMPOUND” (ANYGEN CO., LTD., priority 2021, published 2025)
Square brackets hold non-standard residues; d marks the D form. Peptide text beside a SMILES is read from it. * marks the point of attachment. His(Trt) = N[C@@H](Cc1cn(C(c2ccccc2)(c2ccccc2)c2ccccc2)cn1)C(=O)O; dHis(Trt) = N[C@H](Cc1cn(C(c2ccccc2)(c2ccccc2)c2ccccc2)cn1)C(=O)O; His(τ-CHPh2) = N[C@@H](Cc1cn(C(c2ccccc2)c2ccccc2)cn1)C(=O)O; dPhe(4-CF3) = N[C@H](Cc1ccc(C(F)(F)F)cc1)C(=O)O; dPhe(4-Cl) = N[C@H](Cc1ccc(Cl)cc1)C(=O)O; dPhe(4-Me) = Cc1ccc(C[C@@H](N)C(=O)O)cc1; dPhe(4-F) = N[C@H](Cc1ccc(F)cc1)C(=O)O; d2Nal = N[C@H](Cc1ccc2ccccc2c1)C(=O)O; Dmt = Cc1cc(O)cc(C)c1C[C@H](N)C(=O)O; Palmitoyl = CCCCCCCCCCCCCCCC(=O)*; Octanoyl = CCCCCCCC(=O)*

The molecules below were run against T1, GPR39 (Homo sapiens, UniProt O43194) (assay: luciferase assay system (SRE luciferase reporter gene, CV-1 cells expressing GPR39)). Settings: not given.
T1 sequence (O43194 1-453): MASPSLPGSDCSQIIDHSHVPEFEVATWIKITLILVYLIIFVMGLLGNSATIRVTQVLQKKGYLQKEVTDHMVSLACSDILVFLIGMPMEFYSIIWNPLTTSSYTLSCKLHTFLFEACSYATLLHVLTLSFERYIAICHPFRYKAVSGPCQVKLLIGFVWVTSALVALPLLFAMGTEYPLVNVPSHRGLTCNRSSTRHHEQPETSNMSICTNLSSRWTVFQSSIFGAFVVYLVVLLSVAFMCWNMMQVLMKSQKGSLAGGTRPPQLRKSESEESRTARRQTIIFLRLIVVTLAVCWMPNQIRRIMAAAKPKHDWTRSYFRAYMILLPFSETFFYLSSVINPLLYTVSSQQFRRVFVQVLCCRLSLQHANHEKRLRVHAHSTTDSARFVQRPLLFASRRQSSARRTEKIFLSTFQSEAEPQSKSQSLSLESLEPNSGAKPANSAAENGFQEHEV
Assay type: cell-based
Design: expressed in transfected cells; host or cells: CV-1 fibroblast cell line (Korea Cell Line Bank), adenoviral transduction at 50 MOI

First: CCCCCCCC(=O)NCCCC[C@H](NC(=O)[C@@H](N)Cc1c[nH]c(-c2cccs2)n1)C(=O)N[C@H](Cc1ccc(C)cc1)C(=O)N[C@@H](Cc1ccc(O)cc1)C(=O)O [HKFY-63, ((R)-2-((S)-2-((S)-2-amino-3-(2-(thiophen-2-yl)-1H-imidazol-4-yl)propanamido)-6-octanamidohexanamido)-3-(p-tolyl)propanoyl)-L-tyrosine]
Second: CCCCCCCC(=O)NCCCC[C@H](NC(=O)[C@@H](N)Cc1cn(-c2ccccc2)cn1)C(=O)N[C@H](Cc1ccc(C)cc1)C(=O)N[C@@H](Cc1ccc(O)cc1)C(=O)O [HKFY-58, ((R)-2-((S)-2-((S)-2-amino-3-(1-phenyl-1H-imidazol-4-yl)propanamido)-6-octanamidohexanamido)-3-(p-tolyl)propanoyl)-L-tyrosine]
The “ECmax (−fold induction over basal)” value of the first is higher: 13.5 ± 1.8 fold induction over basal for the first, 9.12 ± 2.1 fold induction over basal for the second.

First: CCCCCCCC(=O)NCCCC[C@H](NC(=O)[C@@H](N)Cc1cn(CCC2CCCCC2)cn1)C(=O)N[C@@H](Cc1ccccc1)C(=O)N[C@@H](Cc1ccc(O)cc1)C(=O)O [HKFY-11, N2-(Nt-(2-cyclohexylethyl)-L-histidyl)-N6-octanoyl-L-lysyl-L-phenylalanyl-L-tyrosine]
Second: CCCCCCCC(=O)NCCCC[C@H](N)C(=O)N[C@@H](Cc1ccccc1)C(=O)N[C@@H](Cc1ccc(O)cc1)C(=O)O [HKFY-54, N6-octanoyl-L-lysyl-L-phenylalanyl-L-tyrosine] (H-Lys(Octanoyl)-Phe-Tyr-OH)
The “ECmax (−fold induction over basal)” value of the first is higher: 22 ± 2.2 fold induction over basal for the first, 7.8 ± 2.5 fold induction over basal for the second.

`CCCCCCCC(=O)NCCCC[C@H](NC(=O)[C@@H](N)Cc1cn(C(c2ccccc2)(c2ccccc2)c2ccccc2)cn1)C(=O)N[C@H](Cc1ccc(F)cc1)C(=O)N[C@@H](Cc1ccc(O)cc1)C(=O)O` [HKFY-28, ((R)-2-((S)-2-((S)-2-amino-3-(1-trityl-1H-imidazol-4-yl)propanamido)-6-octanamidohexanamido)-3-(4-fluorophenyl)propanoyl)-L-tyrosine] (H-[His(Trt)]K(Octanoyl)[dPhe(4-F)]Y-OH) and `CCCCCCCC(=O)NCCCC[C@H](NC(=O)[C@H](N)Cc1cn(C(c2ccccc2)(c2ccccc2)c2ccccc2)cn1)C(=O)N[C@H](Cc1ccc(Cl)cc1)C(=O)N[C@H](Cc1ccc(O)cc1)C(=O)O` [HKFY-14, ((R)-2-((S)-2-((R)-2-amino-3-(1-trityl-1H-imidazol-4-yl)propanamido)-6-octanamidohexanamido)-3-(4-chlorophenyl)propanoyl)-D-tyrosine] (H-[dHis(Trt)]K(Octanoyl)[dPhe(4-Cl)][dY]-OH) are within error of each other in “ECmax (−fold induction over basal)” value: 22.95 ± 2.58 fold induction over basal for the first, 20.9 ± 1.4 fold induction over basal for the second.

`CCCCCCCC(=O)NCCCC[C@H](NC(=O)[C@@H](N)Cc1cn(C(c2ccccc2)(c2ccccc2)c2ccccc2)cn1)C(=O)N[C@@H](Cc1ccccc1)C(=O)N[C@@H](Cc1c[nH]c2ccccc12)C(=O)O` [HKFY-46, N6-octanoyl-N2-(Nt-trityl-L-histidyl)-L-lysyl-L-phenylalanyl-L-tryptophan] (H-[His(Trt)]K(Octanoyl)FW-OH) and `CCCCCCCC(=O)NCCCC[C@H](NC(=O)[C@@H](N)Cc1cn(C(c2ccccc2)(c2ccccc2)c2ccccc2)cn1)C(=O)N[C@@H](Cc1ccccc1)C(=O)O` [HKFY-49, N6-octanoyl-N2-(Nt-trityl-L-histidyl)-L-lysyl-L-phenylalanine] (H-[His(Trt)]-Lys(Octanoyl)-Phe-OH) are within error of each other in “ECmax (−fold induction over basal)” value: 20 ± 0.28 fold induction over basal for the first, 18.3 ± 1.8 fold induction over basal for the second.

Compared with `CCCCCCCC(=O)NCCCC[C@H](NC(=O)[C@@H](N)Cc1cn(C(c2ccccc2)(c2ccccc2)c2ccccc2)cn1)C(=O)N[C@H](Cc1ccc(C(F)(F)F)cc1)C(=O)N[C@@H](Cc1ccc(O)cc1)C(=O)O` [HKFY-76, ((R)-2-((S)-2-((S)-2-amino-3-(1-trityl-1H-imidazol-4-yl)propanamido)-6-octanamidohexanamido)-3-(4-(trifluoromethyl)phenyl)propanoyl)-L-tyrosine] (H-[His(Trt)]K(Octanoyl)[dPhe(4-CF3)]Y-OH), `C=C(CCCCCCC)NCCCC[C@H](NC(=O)[C@@H](N)Cc1cn(C(c2ccccc2)(c2ccccc2)c2ccccc2)cn1)C(=O)N[C@H](Cc1ccc(Cl)cc1)C(=O)N[C@@H](Cc1ccc(O)cc1)C(=O)O` [HKFY-13, ((R)-2-((S)-2-((S)-2-amino-3-(1-trityl-1H-imidazol-4-yl)propanamido)-6-(non-1-en-2-ylamino)hexanamido)-3-(4-chlorophenyl)propanoyl)-L-tyrosine] is higher in “ECmax (−fold induction over basal)” value: 14.2 ± 3.75 fold induction over basal for the first, 25.7 ± 2.4 fold induction over basal for the second.

`CCCCCCCC(=O)NCCCC[C@H](NC(=O)[C@@H](N)Cc1cn(C(c2ccccc2)c2ccc(OC)cc2)cn1)C(=O)N[C@@H](Cc1ccccc1)C(=O)N[C@@H](Cc1ccc(O)cc1)C(=O)O` (stereo partly drawn) [HKFY-20, N2-(Nt-((4-methoxyphenyl)(phenyl)methyl)-L-histidyl)-N6-octanoyl-L-lysyl-L-phenylalanyl-L-tyrosine] and `CCCCCCCC(=O)NCCCC[C@H](NC(=O)[C@@H](N)Cc1cn([C@H](c2ccccc2)c2ccc(Cl)cc2)cn1)C(=O)N[C@@H](Cc1ccccc1)C(=O)N[C@@H](Cc1ccc(O)cc1)C(=O)O` [HKFY-21, N2-(Nt-((R)-(4-chlorophenyl)(phenyl)methyl)-L-histidyl)-N6-octanoyl-L-lysyl-L-phenylalanyl-L-tyrosine] are within error of each other in “ECmax (−fold induction over basal)” value: 20.26 ± 2.7 fold induction over basal for the first, 18.3 ± 2.5 fold induction over basal for the second.

Going from `CCCCCCCC(=O)NCCCC[C@H](NC(=O)[C@H](N)Cc1cn(C(c2ccccc2)c2ccccc2)cn1)C(=O)N[C@H](Cc1ccc(C)cc1)C(=O)N[C@@H](Cc1ccc(O)cc1)C(=O)O` [HKFY-62, ((R)-2-((S)-2-((R)-2-amino-3-(1-benzhydryl-1H-imidazol-4-yl)propanamido)-6-octanamidohexanamido)-3-(p-tolyl)propanoyl)-L-tyrosine] to `CCCCCCCC(=O)NCCCC[C@H](NC(=O)[C@@H](N)Cc1cn(C(c2ccccc2)c2ccccc2)cn1)C(=O)N[C@@H](Cc1ccccc1)C(=O)N[C@@H](Cc1ccc(O)cc1)C(=O)O` [HKFY-33, N2-(Nt-benzhydryl-L-histidyl)-N6-octanoyl-L-lysyl-L-phenylalanyl-L-tyrosine] (H-[His(τ-CHPh2)]K(Octanoyl)FY-OH), the “ECmax (−fold induction over basal)” value falls from 28.1 ± 2.1 fold induction over basal to 20 ± 0.57 fold induction over basal.

`CCCCCCCC(=O)NCCCC[C@H](NC(=O)[C@@H](N)Cc1cn(C(c2ccccc2)(c2ccccc2)c2ccccc2)cn1)C(=O)N[C@H](Cc1ccc2ccccc2c1)C(=O)N[C@@H](Cc1ccc(O)cc1)C(=O)O` [HKFY-74, ((R)-2-((S)-2-((S)-2-amino-3-(1-trityl-1H-imidazol-4-yl)propanamido)-6-octanamidohexanamido)-3-(naphthalen-2-yl)propanoyl)-L-tyrosine] (H-[His(Trt)]K(Octanoyl)[d2Nal]Y-OH) and `CCCCCCCCCCCCCCCC(=O)NCCCC[C@H](NC(=O)[C@@H](N)Cc1cn(C(c2ccccc2)(c2ccccc2)c2ccccc2)cn1)C(=O)N[C@@H](Cc1ccccc1)C(=O)N[C@@H](Cc1ccc(O)cc1)C(=O)O` [HKFY-27, N6-palmitoyl-N2-(Nt-trityl-L-histidyl)-L-lysyl-L-phenylalanyl-L-tyrosine] (H-[His(Trt)]K(Palmitoyl)FY-OH) are within error of each other in “ECmax (−fold induction over basal)” value: 18.8 ± 3.2 fold induction over basal for the first, 20.4 ± 0.57 fold induction over basal for the second.

Going from `CCCCCCCC(=O)NCCCC[C@H](NC(=O)[C@@H](N)CC1=CN(CCc2ccccc2)CN1CCc1ccccc1)C(=O)N[C@@H](Cc1ccccc1)C(=O)N[C@@H](Cc1ccc(O)cc1)C(=O)O` [HKFY-6, N2-((S)-2-amino-3-(1,3-diphenethyl-2,3-dihydro-1H-imidazol-4-yl)propanoyl)-N6-octanoyl-L-lysyl-L-phenylalanyl-L-tyrosine] to `CCCCCCCC(=O)NCCCC[C@H](NC(=O)[C@@H](N)Cc1cn(-c2ccccc2)c(-c2ccccc2)n1)C(=O)N[C@H](Cc1ccc(C)cc1)C(=O)N[C@@H](Cc1ccc(O)cc1)C(=O)O` [HKFY-59, ((R)-2-((S)-2-((S)-2-amino-3-(1,2-diphenyl-1H-imidazol-4-yl)propanamido)-6-octanamidohexanamido)-3-(p-tolyl)propanoyl)-L-tyrosine], the “ECmax (−fold induction over basal)” value falls from 15 ± 2.12 fold induction over basal to 6.76 ± 2.2 fold induction over basal.

Same assay, conditions: CV-1 cells, GPR39 and SRE luciferase adenovirus, 6 hours treatment

With `CCCCCCCC(=O)NCCCC[C@H](NC(=O)[C@@H](N)Cc1cn(C(c2ccccc2)c2ccccc2)cn1)C(=O)N[C@H](Cc1ccc(C)cc1)C(=O)N[C@@H](Cc1c(C)cc(O)cc1C)C(=O)O` [HKFY-36, (S)-2-((R)-2-((S)-2-((S)-2-amino-3-(1-benzhydryl-1H-imidazol-4-yl)propanamido)-6-octanamidohexanamido)-3-(p-tolyl)propanamido)-3-(4-hydroxy-2,6-dimethylphenyl)propanoic acid] (H-[His(τ-CHPh2)]K(Octanoyl)[dPhe(4-Me)][Dmt]-OH) the “ECmax (−fold induction over basal)” value was 9.9 ± 0.28 fold induction over basal.

Same assay, conditions: comment on Table 3

`CCCCCCCC(=O)NCCCC[C@H](NC(=O)[C@@H](N)Cc1c[nH]c(-c2cccs2)n1)C(=O)N[C@H](Cc1ccc(C)cc1)C(=O)N[C@@H](Cc1ccc(O)cc1)C(=O)O` [HKFY-63, ((R)-2-((S)-2-((S)-2-amino-3-(2-(thiophen-2-yl)-1H-imidazol-4-yl)propanamido)-6-octanamidohexanamido)-3-(p-tolyl)propanoyl)-L-tyrosine] was tested, and the “activity level for GPR39 (in words)” value was “higher activity level than other HKFY derivatives”.
